In patent US10472347B2, “Aminopyrazine compounds with A2A antagonist properties” (Merck Sharp & Dohme Corp., priority 2014, dated 2019):

What follows are compounds tested against T1, human A2a receptor (Homo sapiens, UniProt P29274) (assay: A2a competition binding assay, Scintillation Proximity technology). Conditions: membranes from HEK293 cells expressing human A2a receptor; Ki by Cheng-Prusoff equation.
T1 construct: purchased Perkin-Elmer RBHA2AM400UA; host or cells: HEK293 cells (membranes)
Procedure, shortened: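 Membranes from HEK293 cells expressing human A2a, adenosine deaminase-treated, incubated 1 h at room temperature with compound (3000 to 0.15 nM) and 0.5 nM tritiated pyrazolotriazolopyrimidine radioligand on WGA SPA beads in Ca/Mg-free PBS + 10 mM MgCl2. Non-specific binding with 1 μM CGS15943; Ki by Cheng-Prusoff.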

T1 sequence (P29274 whole entry): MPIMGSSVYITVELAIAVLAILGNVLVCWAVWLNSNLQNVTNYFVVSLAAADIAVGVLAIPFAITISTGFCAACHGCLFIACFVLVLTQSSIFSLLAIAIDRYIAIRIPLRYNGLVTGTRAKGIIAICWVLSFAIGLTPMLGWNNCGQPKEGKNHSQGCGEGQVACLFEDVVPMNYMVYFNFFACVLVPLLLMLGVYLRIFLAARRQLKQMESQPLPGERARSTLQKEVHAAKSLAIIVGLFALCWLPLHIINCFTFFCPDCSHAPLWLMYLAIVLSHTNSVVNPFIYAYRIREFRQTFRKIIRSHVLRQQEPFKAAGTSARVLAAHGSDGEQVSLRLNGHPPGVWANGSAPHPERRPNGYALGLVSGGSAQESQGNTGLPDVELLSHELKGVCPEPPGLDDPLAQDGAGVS

**Q.** For `Cc1cnn(-c2nc(N)c(C(=O)NCc3nc4ccccc4s3)nc2Cl)c1` [Ex-355, 3-amino-N-(1,3-benzothiazol-2-ylmethyl)-6-chloro-5-(4-methyl-1H-pyrazol-1-yl)pyrazine-2-carboxamide], which Ki is on record?
**A.** The Ki was 543 nM.

**Q.** With `Nc1nc(-n2ccnn2)c(Cl)nc1C(=O)NCc1ccc(F)cc1F` [Ex-270, 3-amino-6-chloro-N-(2,4-difluorobenzyl)-5-(1H-1,2,3-triazol-1-yl)pyrazine-2-carboxamide] as the compound, how does the Ki read?
**A.** The Ki was 6470 nM.

**Q.** For `Cc1nc(C(=O)NC2CC(O)c3cccnc32)c(N)nc1-c1ncco1` (stereo not shown) [Ex-240B, 3-amino-N-(5-hydroxy-6,7-dihydro-5H-cyclopenta[b]pyridin-7-yl)-6-methyl-5-(1,3-oxazol-2-yl)pyrazine-2-carboxamide], which Ki is on record?
**A.** Its Ki is 1.73 nM.

**Q.** With `Cc1cc(CNC(=O)c2nc(C)c(-c3ncco3)nc2N)ccc1F` [Ex-137, 3-amino-N-(4-fluoro-3-methylbenzyl)-6-methyl-5-(1,3-oxazol-2-yl)pyrazine-2-carboxamide] as the compound, how does the Ki read?
**A.** The Ki was 0.307 nM.

**Q.** Which Ki does the source give for `Cc1ccc(CNC(=O)c2nc(C)c(-c3ncco3)nc2N)nc1-c1ccccn1` [Ex-88, 3-amino-6-methyl-N-[(3-methyl-2,2′-bipyridin-6-yl)methyl]-5-(1,3-oxazol-2-yl)pyrazine-2-carboxamide] here?
**A.** The Ki was 6.16 nM.

**Q.** For `Cc1cnnc(CNC(=O)c2nc(C)c(-c3ncco3)nc2N)c1` [Ex-56, 3-amino-6-methyl-N-[(5-methylpyridazin-3-yl)methyl]-5-(1,3-oxazol-2-yl)pyrazine-2-carboxamide], which Ki is on record?
**A.** The Ki was 21.5 nM.

**Q.** Which Ki does the source give for `Cc1cccnc1CNC(=O)c1nc(C)c(-n2ccnn2)nc1N` [Ex-278, 3-amino-6-methyl-N-[(3-methylpyridin-2-yl)methyl]-5-(1H-1,2,3-triazol-1-yl)pyrazine-2-carboxamide] here?
**A.** The Ki was 191 nM.

**Q.** With `CCC(NC(=O)c1nc(C)c(-c2ncco2)nc1N)c1ccccn1` (single isomer, unassigned) [Ex-94B, 3-amino-6-methyl-5-(1,3-oxazol-2-yl)-N-(1-pyridin-2-ylpropyl)pyrazine-2-carboxamide] as the compound, how does the Ki read?
**A.** Its Ki is 138 nM.

**Q.** `Cc1cccnc1CNC(=O)c1nc(C)c(-c2nc(C(F)(F)F)co2)nc1N` [Ex-379, 3-amino-6-methyl-N-[(3-methylpyridin-2-yl)methyl]-5-[4-(trifluoromethyl)-1,3-oxazol-2-yl]pyrazine-2-carboxamide] was tested. Which Ki did it give?
**A.** The Ki was 1490 nM.

**Q.** `Cc1nc(C(=O)NCc2ncc(C3CC3)cn2)c(N)nc1-c1ncco1` [Ex-197, 3-amino-N-[(5-cyclopropylpyrimidin-2-yl)methyl]-6-methyl-5-(1,3-oxazol-2-yl)pyrazine-2-carboxamide] was tested. Which Ki did it give?
**A.** The Ki was 6.37 nM.

**Q.** For `Cc1cnn(-c2nc(N)c(C(=O)N[C@H](CO)c3ccccc3)nc2Cl)c1` [Ex-349, 3-amino-6-chloro-N-[(1S)-2-hydroxy-1-phenylethyl]-5-(4-methyl-1H-pyrazol-1-yl)pyrazine-2-carboxamide], which Ki is on record?
**A.** Its Ki is 180 nM.

**Q.** How did the Ki turn out when `Cc1nc(C(=O)NC2Cc3ccccc3C2)c(N)nc1-c1ncco1` [Ex-235, 3-amino-N-(2,3-dihydro-1H-inden-2-yl)-6-methyl-5-(1,3-oxazol-2-yl)pyrazine-2-carboxamide] was run?
**A.** The Ki was 0.243 nM.

**Q.** With `Cc1coc(-c2nc(N)c(C(=O)NCc3ncccc3C)nc2C)n1` [Ex-380, 3-amino-6-methyl-5-(4-methyl-1,3-oxazol-2-yl)-N-[(3-methylpyridin-2-yl)methyl]pyrazine-2-carboxamide] as the compound, how does the Ki read?
**A.** Its Ki is 0.384 nM.

**Q.** For `Nc1nc(-n2cccn2)c(Cl)nc1C(=O)NCc1ccccc1C(F)(F)F` [Ex-329, 3-amino-6-chloro-5-(1H-pyrazol-1-yl)-N-[2-(trifluoromethyl)benzyl] pyrazine-2-carboxamide], which Ki is on record?
**A.** Its Ki is 8.6 nM.

**Q.** With `COc1ccnc(CNC(=O)c2nc(C)c(-c3ncco3)nc2N)n1` [Ex-110, 3-amino-N-[(4-methoxypyrimidin-2-yl)methyl]-6-methyl-5-(1,3-oxazol-2-yl)pyrazine-2-carboxamide] as the compound, how does the Ki read?
**A.** Its Ki is 1.32 nM.

**Q.** `Cc1nc(C(=O)NCc2nccc(F)c2C2CC2)c(N)nc1-c1ncco1` [Ex-180, 3-amino-N-[(3-cyclopropyl-4-fluoropyridin-2-yl)methyl]-6-methyl-5-(1,3-oxazol-2-yl)pyrazine-2-carboxamide] was tested. Which Ki did it give?
**A.** Its Ki is 0.168 nM.

**Q.** For `Cc1nc(C(=O)N[C@H]2c3ccccc3C[C@@H]2O)c(N)nc1-c1ncco1` [Ex-130, 3-amino-N-[(1S,2S)-2-hydroxy-2,3-dihydro-1H-inden-1-yl]-6-methyl-5-(1,3-oxazol-2-yl)pyrazine-2-carboxamide], which Ki is on record?
**A.** Its Ki is 3.41 nM.

**Q.** For `Nc1nc(-n2nccn2)c(Cl)nc1C(=O)NCc1cccc2cccnc12` [Ex-273, 3-amino-6-chloro-N-(quinolin-8-ylmethyl)-5-(2H-1,2,3-triazol-2-yl)pyrazine-2-carboxamide], which Ki is on record?
**A.** The Ki was 2.23 nM.

**Q.** For `Cc1nc(C(=O)N[C@H]2CCc3cccnc32)c(N)nc1-c1ncco1` [Ex-7B, (S)-3-amino-N-(6,7-dihydro-5H-cyclopenta[b]pyridin-7-yl)-6-methyl-5-(1,3-oxazol-2-yl)pyrazine-2-carboxamide], which Ki is on record?
**A.** Its Ki is 0.387 nM.

**Q.** How did the Ki turn out when `Cc1cc(C)nc(CNC(=O)c2nc(C)c(-c3ncco3)nc2N)n1` [Ex-81, 3-amino-N-[(4,6-dimethylpyrimidin-2-yl)methyl]-6-methyl-5-(1,3-oxazol-2-yl)pyrazine-2-carboxamide] was run?
**A.** Its Ki is 2.8 nM.

**Q.** Which Ki does the source give for `Cc1nc(C(=O)NCc2ccc3c(n2)NCCC3)c(N)nc1-c1ncco1` [Ex-98, 3-amino-6-methyl-5-(1,3-oxazol-2-yl)-N-(5,6,7,8-tetrahydro-1,8-naphthyridin-2-ylmethyl)pyrazine-2-carboxamide] here?
**A.** The Ki was 2.93 nM.

**Q.** `COCCNC(=O)c1nc(C)c(-c2ncco2)nc1N` [Ex-123, 3-amino-N-(2-methoxyethyl)-6-methyl-5-(1,3-oxazol-2-yl)pyrazine-2-carboxamide] was tested. Which Ki did it give?
**A.** The Ki was 17.4 nM.

**Q.** For `Nc1nc(-n2nccn2)c(Cl)nc1C(=O)NCc1cc2ccccc2[nH]1` [Ex-308, 3-amino-6-chloro-N-(1H-indol-2-ylmethyl)-5-(2H-1,2,3-triazol-2-yl)pyrazine-2-carboxamide], which Ki is on record?
**A.** The Ki was 34.5 nM.

**Q.** Which Ki does the source give for `Cc1nc(C)c(CNC(=O)c2nc(C)c(-c3ncco3)nc2N)s1` [Ex-71, 3-amino-N-[(2,4-dimethyl-1,3-thiazol-5-yl)methyl]-6-methyl-5-(1,3-oxazol-2-yl)pyrazine-2-carboxamide] here?
**A.** The Ki was 23.8 nM.

**Q.** With `Cc1ccnnc1CNC(=O)c1nc(C)c(-c2ncco2)nc1N` [Ex-48, 3-amino-6-methyl-N-[(4-methylpyridazin-3-yl)methyl]-5-(1,3-oxazol-2-yl)pyrazine-2-carboxamide] as the compound, how does the Ki read?
**A.** Its Ki is 1.01 nM.

**Q.** `Cc1nc(C(=O)NCc2ccncn2)c(N)nc1-c1ncco1` [Ex-76, 3-amino-6-methyl-5-(1,3-oxazol-2-yl)-N-(pyrimidin-4-ylmethyl)pyrazine-2-carboxamide] was tested. Which Ki did it give?
**A.** Its Ki is 50.1 nM.

**Q.** Which Ki does the source give for `Cc1nc(C(=O)NCc2ccc(F)cn2)c(N)nc1-c1ncco1` [Ex-57, 3-amino-N-[(5-fluoropyridin-2-yl)methyl]-6-methyl-5-(1,3-oxazol-2-yl)pyrazine-2-carboxamide] here?
**A.** Its Ki is 1.03 nM.

**Q.** How did the Ki turn out when `Cc1nc(C(=O)NCc2ncccn2)c(N)nc1-c1ncco1` [Ex-19, 3-amino-6-methyl-5-(1,3-oxazol-2-yl)-N-(pyrimidin-2-ylmethyl)pyrazine-2-carboxamide] was run?
**A.** The Ki was 2.76 nM.

**Q.** With `Cc1cccc(CNC(=O)c2nc(C)c(-c3ncco3)nc2N)c1F` [Ex-135, 3-amino-N-(2-fluoro-3-methylbenzyl)-6-methyl-5-(1,3-oxazol-2-yl)pyrazine-2-carboxamide] as the compound, how does the Ki read?
**A.** The Ki was 0.169 nM.

**Q.** For `Cc1cnn(-c2nc(N)c(C(=O)NCc3cccc4cccnc34)nc2Cl)c1` [Ex-340, 3-amino-6-chloro-5-(4-methyl-1H-pyrazol-1-yl)-N-(quinolin-8-ylmethyl)pyrazine-2-carboxamide], which Ki is on record?
**A.** The Ki was 12.8 nM.

**Q.** `Cc1nc(C(=O)NCc2nccc(OCC(F)(F)F)c2C)c(N)nc1-c1ncco1` [Ex-58, 3-amino-6-methyl-N-{[3-methyl-4-(2,2,2-trifluoroethoxy)pyridin-2-yl]methyl}-5-(1,3-oxazol-2-yl)pyrazine-2-carboxamide] was tested. Which Ki did it give?
**A.** The Ki was 4.56 nM.

**Q.** Which Ki does the source give for `CCc1ccc(CNC(=O)c2nc(C)c(-c3ncco3)nc2N)cc1` [Ex-139, 3-amino-N-(4-ethylbenzyl)-6-methyl-5-(1,3-oxazol-2-yl)pyrazine-2-carboxamide] here?
**A.** Its Ki is 3.03 nM.

**Q.** With `Cc1nc(C(=O)N[C@@H]2CCc3cccnc32)c(N)nc1-c1ncco1` [Ex-7A, (R)-3-amino-N-(6,7-dihydro-5H-cyclopenta[b]pyridin-7-yl)-6-methyl-5-(1,3-oxazol-2-yl)pyrazine-2-carboxamide] as the compound, how does the Ki read?
**A.** Its Ki is 5.18 nM.

**Q.** Which Ki does the source give for `Cc1nc(C(=O)N[C@H]2[C@H](C)CC[C@H]2O)c(N)nc1-c1ncco1` [Ex-207, 3-amino-N-[(1S,2R,5R)-2-hydroxy-5-methylcyclopentyl]-6-methyl-5-(1,3-oxazol-2-yl)pyrazine-2-carboxamide] here?
**A.** The Ki was 2.92 nM.

**Q.** With `Cc1nc(C(=O)NCc2cccc3c2ncn3C(C)C)c(N)nc1-c1ncco1` [Ex-189] as the compound, how does the Ki read?
**A.** Its Ki is 1.03 nM.

**Q.** `Cc1nc(C(=O)NCc2cccn(C)c2=O)c(N)nc1-c1ncco1` [Ex-50, 3-amino-6-methyl-N-[(1-methyl-2-oxo-1,2-dihydropyridin-3-yl)methyl]-5-(1,3-oxazol-2-yl)pyrazine-2-carboxamide] was tested. Which Ki did it give?
**A.** The Ki was 1.25 nM.

**Q.** Which Ki does the source give for `Cc1cnn(-c2nc(N)c(C(=O)N[C@@H]3CCc4ccccc43)nc2Cl)c1` [Ex-336, 3-amino-6-chloro-N-[(1R)-2,3-dihydro-1H-inden-1-yl]-5-(4-methyl-1H-pyrazol-1-yl)pyrazine-2-carboxamide] here?
**A.** The Ki was 135 nM.

**Q.** With `Cc1nc(C(=O)NC(C)(C)c2ccccn2)c(N)nc1-c1cnco1` [Ex-259, 3-amino-6-methyl-N-(1-methyl-1-pyridin-2-ylethyl)-5-(1,3-oxazol-5-yl)pyrazine-2-carboxamide] as the compound, how does the Ki read?
**A.** Its Ki is 403 nM.

**Q.** How did the Ki turn out when `Cc1nc(C(=O)NCc2nccc(F)c2C)c(N)nc1-c1ncco1` [Ex-162, 3-amino-N-[(4-fluoro-3-methylpyridin-2-yl)methyl]-6-methyl-5-(1,3-oxazol-2-yl)pyrazine-2-carboxamide] was run?
**A.** Its Ki is 0.333 nM.

**Q.** For `Cc1cnn(-c2nc(N)c(C(=O)NCc3nc4ccccc4n3C)nc2Cl)c1` [Ex-351, 3-amino-6-chloro-N-[(1-methyl-1H-benzimidazol-2-yl)methyl]-5-(4-methyl-1H-pyrazol-1-yl)pyrazine-2-carboxamide], which Ki is on record?
**A.** Its Ki is 315 nM.
